# Reference: patent US20120238488A1, “COMPOUNDS AND METHODS FOR TREATING NEOPLASIA” (priority 2009, published 2012)
# Where two headings read alike, the source gives them in different places.
# What was measured:
# SF268 (CNS) = experiment: SRB assay, SF268; assay type: cell-based; settings: Homo sapiens; for CC50: SF-268, 48 h, read-out: LC50; for GI50 / IC (TGI): SF-268, SF268, SRB, 48 h; for GI50: read-out: GI50; for IC (TGI): read-out: TGI
# Method: (§1) SRB assays were performed according to standard National Cancer Institute Guidelines. Briefly, human tumor cells from different cancer panels were seeded into 96 well plates in 100 μL (plating densities ranging from 5-40,000 cells/well depending on the doubling time of individual cell lines) in serum-containing media for twenty-four hours prior to the addition of the compounds to be assayed. After 24 hours, one plate of each cell line was fixed in situ with trichloroacetic acid (TCA). The fixed slides were used to determine the cell population for each cell line at the time of drug addition (Tz). Each compound to be tested was solubilized in DMSO and the desired concentration was then added to the medium and diluted serially 1:10 to provide a total of five or ten drug concentrations plus control (in a final volume of 200 μL). The starting dose before any dilution was 100 uM for all compounds.
# (§2) Following drug addition, each culture was incubated for forty-eight hours. The assay was terminated with the addition of cold TCA. The supernatant was discarded, and the plates were washed with tap water and air dried. Sulforhodamine B (SRB) solution was then added to each well. After staining, the bound stain was solubilized and the absorbance was read on an automated plate reader at a wavelength of 515 nm.
# (§3) Using the absorbance measurements [time zero, (Tz), control growth, (C), and test growth in the presence of drug at the ten concentration levels (Ti)], the percentage growth was calculated at each of the drug concentrations levels. Percentage growth inhibition was calculated as:
# (§4) [(Ti−Tz)/(C−Tz)]×100 for concentrations for which Ti>/=Tz
# (§5) [(Ti−Tz)/Tz]×100 for concentrations for which Ti<Tz.
# (§6) Three dose response parameters were calculated for each experimental agent. Growth inhibition of 50% (GI50) was calculated from [(Ti−Tz)/(C−Tz)]×100=50, which was the drug concentration resulting in a 50% reduction in the net protein increase (as measured by SRB staining) in control cells during the drug. The drug concentration resulting in total growth inhibition (TGI) was calculated from Ti=Tz. The LC50 (concentration of drug resulting in a 50% reduction in the measured protein at the end of the drug treatment as compared to that at the beginning) indicating a net loss of cells following treatment was calculated from [(Ti−Tz)/Tz]×100=−50.
# (§7) Values were calculated for each of these three parameters when the level of activity was reached; however, if the effect was not reached or was exceeded, the value for that parameter was expressed as greater or less than the maximum or minimum concentration tested.
# (§8) Table 4 summarizes results characterizing the effects of compound Nos. 120, 12, 61, 1, and 56 on GI50, which measures the cell growth inhibitory power of the compound, TGI, which measures cytostatic effect (TGI) and LC50, which signifies cytotoxic effect. Each of these parameters in Table 4 was calculated in a sulforhodamine B (SRB) assay, which provides a colorimetric measure of a compound's anti-cancer activity. SRB assays were performed with compounds of the invention in 22 different cell lines (shaded in light gray in Table 4), which represent nine different tumor panels (lung, melanoma, ovary, prostate, CNS, breast, pancreas colon and renal). Ouabain and digoxin were used as controls. Paclitaxel was added as a non-Na^+K^+-ATPase inhibitor control.
# CAKJ1 (Renal) = experiment: SRB assay, CAKJ1; assay type: cell-based, human; settings: 48 h; for TGI / GI50: CAKJ1, SRB; for CC50 / GI50: Homo sapiens; for CC50: read-out: LC50
# Method: as §1, §2, §3, §4, §5, §6, §7, §8
# ERVK (Lung) = experiment: SRB assay, ERVK; assay type: cell-based, human; settings: 48 h; for TGI / GI50: ERVK, SRB; for CC50 / GI50: Homo sapiens; for CC50: read-out: LC50
# Method: as §1, §2, §3, §4, §5, §6, §7, §8
# PCJ (Prostate) = experiment: SRB assay, PCJ; assay type: cell-based; settings: Homo sapiens, 48 h; for CC50: read-out: LC50; for GI50 / IC (TGI): PCJ, SRB
# Method: as §1, §2, §3, §4, §5, §6, §7, §8
# OVCAR3 (Ovary) = experiment: SRB assay, OVCAR3; assay type: cell-based, human; settings: for CC50 / GI50: Homo sapiens; for CC50: OVCAR-3, 48 h, read-out: LC50; for GI50: OVCAR-3; for GI50 / TGI: OVCAR3, SRB, 48 h
# Method: as §1, §2, §3, §4, §5, §6, §7, §8
# A549 (Lung) = experiment: SRB assay, A549; assay type: cell-based, human; settings: for TGI / GI50: A549, SRB, 48 h; for CC50 / GI50: Homo sapiens; for CC50: A549, 48 h, read-out: LC50
# Method: as §1, §2, §3, §4, §5, §6, §7, §8
# SKMEL28 (Melanoma) = experiment: SRB assay, SKMEL28; assay type: cell-based, human; settings: for CC50 / GI50: Homo sapiens; for CC50: SK-MEL-28, 48 h, read-out: LC50; for GI50: SK-MEL-28; for GI50 / TGI: SKMEL28, SRB, 48 h
# Method: as §1, §2, §3, §4, §5, §6, §7, §8
# MB435 (Melanoma) = experiment: SRB assay, MB435; assay type: cell-based, human; settings: 48 h; for CC50 / GI50: Homo sapiens; for CC50: read-out: LC50; for GI50 / TGI: MB435, SRB
# Method: as §1, §2, §3, §4, §5, §6, §7, §8
# ADRRES (Ovary) = experiment: SRB assay, ADRRES (multidrug resistant NCI-ADR-RES); assay type: cell-based, human; settings: for TGI / GI50: ADRRES; for TGI / CC50 / GI50: 48 h; for CC50 / GI50: Homo sapiens, NCI/ADR-RES; for CC50: read-out: LC50; for anti-tumor action in multidrug resistant cell line NCI-ADR-RES: cells express high levels of MDR1 and P-glycoprotein
# Method: NCI-ADR-RES cells have been classified as ovarian cancer cells by the National Cancer Institute.
# as §1, §2, §3, §4, §5, §6, §7, §8
# Table 4 also presents results with Compound Nos. 120, 12, 61, 1, and 56 in a well characterized drug resistant cell line, NCI-ADR-RES, that expresses high levels of MDR1 and P-glycoprotein.
# DU145 (Prostate) = experiment: SRB assay, DU145; assay type: cell-based, human; settings: for TGI / GI50: DU145, SRB, 48 h; for CC50 / GI50: Homo sapiens; for CC50: DU-145, 48 h, read-out: LC50; for GI50: DU-145
# Method: as §1, §2, §3, §4, §5, §6, §7, §8
# HCT116 (Colon) = experiment: SRB assay, HCT116; assay type: cell-based; settings: Homo sapiens; for CC50: HCT-116, 48 h, read-out: LC50; for GI50 / IC (TGI): HCT-116, HCT116, SRB, 48 h
# Method: as §1, §2, §3, §4, §5, §6, §7, §8
# OVCAR5 (Ovary) = experiment: SRB assay, OVCAR5; assay type: cell-based, human; settings: for CC50 / GI50: Homo sapiens; for CC50: OVCAR-5, 48 h, read-out: LC50; for GI50: OVCAR-5; for GI50 / TGI: OVCAR5, SRB, 48 h
# Method: as §1, §2, §3, §4, §5, §6, §7, §8
# [1] = system: Na+/K+-ATPase (Adenosine 5′-Triphosphatase isolated from porcine cerebral cortex); experiment: Na+/K+-ATPase inhibitory activity, colorimetric Adenosine 5'-Triphosphatase Enzymatic Assay; assay type: biochemical
# Method: The inhibitory effect of a compound of the invention on ATPase activity was assessed in vitro using the colorimetric Adenosine 5′-Triphosphatase Enzymatic Assay of Sigma (St. Louis, Mo.) according to the manufacturer's instructions. This assay utilizes Adenosine 5′-Triphosphatase isolated from porcine cerebral cortex. Each reaction was performed in a final volume of 250 μl using 0.5 units/ml enzyme in the presence of different inhibitors. […] IC50 values were determined using the Origin® program software (OriginLab, Northampton, Mass.).
Compound,CC50 (SF268 (CNS)) [nM],GI50 (SF268 (CNS)) [nM],IC (TGI) (SF268 (CNS)) [nM],TGI (CAKJ1 (Renal)) [nM],CC50 (CAKJ1 (Renal)) [nM],GI50 (CAKJ1 (Renal)) [nM],TGI (ERVK (Lung)) [nM],CC50 (ERVK (Lung)) [nM],GI50 (ERVK (Lung)) [nM],CC50 (PCJ (Prostate)) [nM],GI50 (PCJ (Prostate)) [nM],IC (TGI) (PCJ (Prostate)) [nM],CC50 (OVCAR3 (Ovary)) [nM],GI50 (OVCAR3 (Ovary)) [nM],TGI (OVCAR3 (Ovary)) [nM],TGI (A549 (Lung)) [nM],CC50 (A549 (Lung)) [nM],GI50 (A549 (Lung)) [nM],CC50 (SKMEL28 (Melanoma)) [nM],GI50 (SKMEL28 (Melanoma)) [nM],further results
"C[C@]12CCC(=NOCCN)C=C1CCC1C2CC[C@@]2(C)C1CC[C@@H]2O (stereo partly drawn) [Compound 120, (1S,9aR,11aS)-17-hydroxy-10,13-dimethyl-6,7,8,9,10,11,12,13,14,15,16,17-dodecahydro-1H-cyclopenta[a]phenanthren-3(2H)-one O-2-aminoethyl oxime]",20400,4650,9080,9900,61000,4910,38230,≥ 105000,4570,29400,4570,14200,> 100000,6500,41510,62820,≥ 179000,6910,79600,19900,"TGI (SKMEL28 (Melanoma)): 49740 nM; CC50 (MB435 (Melanoma)): 98900 nM; GI50 (MB435 (Melanoma)): 7290 nM; TGI (MB435 (Melanoma)): 38950 nM; TGI (ADRRES (Ovary); SRB): 42910 nM; CC50 (ADRRES (Ovary)): 81900 nM; GI50 (ADRRES (Ovary); SRB): 8730 nM; GI50 in NCI-ADR-RES cells compared to non-resistant MCF-7 cells (ADRRES (Ovary); SRB): the same GI50 value; anti-tumor action in multidrug resistant cell line NCI-ADR-RES (ADRRES (Ovary); SRB): potent anti-tumor action; TGI (DU145 (Prostate)): 13540 nM; CC50 (DU145 (Prostate)): 68500 nM; GI50 (DU145 (Prostate)): 5870 nM; CC50 (HCT116 (Colon)): 39200 nM; GI50 (HCT116 (Colon)): 4280 nM; IC (TGI) (HCT116 (Colon)): 16100 nM; CC50 (OVCAR5 (Ovary)): 87100 nM; GI50 (OVCAR5 (Ovary)): 20500 nM; TGI (OVCAR5 (Ovary)): 53800 nM; Na+K+ ATPase inhibitory activity (in words) [1]: strong Na+K+ ATPase inhibitory activities; IC50 ([1]; 0.5 units/ml enzyme, five concentrations 10^−5 to 10^−9M, read-out: Na+ K+ Inhibitory Activity (IC50)): 897 nM"
"C[C@]12CCC(=NOC3CCNC3)CC1CCC1C2CC[C@]2(C)C(=O)CCC12 (stereo partly drawn) [Compound 56, (10S,13S)-10,13-dimethyl-3-(pyrrolidin-3-yloxyimino)tetradecahydro-1H-cyclopenta[a]phenanthren-17(2H)-one]",810,56.7,349,26.5,172,< 1,62.8,288,17.9,936,33.2,387,170,2.9,11.4,4,8.2,< 1,3740,40.9,TGI (SKMEL28 (Melanoma)): 225.3 nM; CC50 (MB435 (Melanoma)): 668 nM; GI50 (MB435 (Melanoma)): 48.5 nM; TGI (MB435 (Melanoma)): 218.2 nM; TGI (ADRRES (Ovary); SRB): 49.1 nM; CC50 (ADRRES (Ovary)): 90.8 nM; GI50 (ADRRES (Ovary); SRB): 9.3 nM; anti-tumor action in multidrug resistant cell line NCI-ADR-RES (ADRRES (Ovary); SRB): potent anti-tumor action; TGI (DU145 (Prostate)): 22 nM; CC50 (DU145 (Prostate)): 70.6 nM; GI50 (DU145 (Prostate)): 5 nM; CC50 (HCT116 (Colon)): 762 nM; GI50 (HCT116 (Colon)): 5.8 nM; IC (TGI) (HCT116 (Colon)): 70.5 nM; CC50 (OVCAR5 (Ovary)): 740 nM; GI50 (OVCAR5 (Ovary)): 74.9 nM; TGI (OVCAR5 (Ovary)): 341.1 nM; Na+K+ ATPase inhibitory activity (in words) [1]: very potent Na+K+ ATPase inhibitors; IC50 ([1]; read-out: Na+K+ ATPase inhibitory activity IC50): 101 nM
